≈ marks a conversion by molar mass, not a printed value. Read-outs that look alike come from different tables or passages of the source. Marks after values point to notes of the source that are not given here.
Experiments:
Assay in all cases: microbe, parasite or virus in culture
[1] = test system: A. baumannii; conditions: mode of 6 replicates; for MIC: Acinetobacter baumannii
Summary of the method: (§1)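 MICs were scored by eye after 18-20 h static incubation at 37 °C, with bacteria at 5 × 10^5 CFU mL^−1 in MHB. Peptides were serially diluted 2-fold over 12 points, top 128 or 64 μg mL^−1. CAMHB (CLSI) and 1% agarose-MHB variants were also run, at least six replicates.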

[2] = test system: E. coli; conditions: for MIC: Escherichia coli
Summary of the method: as §1

[3] = test system: K. pneumoniae; conditions: mode of 6 replicates; for MIC: Klebsiella pneumoniae
Summary of the method: as §1

[4] = test system: P. aeruginosa; conditions: mode of 6 replicates; for MIC: Pseudomonas aeruginosa
Summary of the method: as §1

[5] = test system: S. aureus
Summary of the method: as §1

[6] = test system: S. enterica Typhi
Summary of the method: as §1

[7] = test system: A. baumannii clinical isolates
Summary of the method: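 MIC90 from CLSI broth microdilution (M07-A9) in two clinical-isolate panels. US panel (331 isolates, 2010-2012): AA139 diluted in 0.01% acetic acid/0.1% BSA. Worldwide panel (445 isolates, 2011-2013, four regions): CAMHB, with 0.002% Tween 80 added for AA139 and polymyxin B.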

[8] = Worldwide isolates 2011-2013, A. baumannii n = 108
[9] = A. baumannii, worldwide isolates 2011-2013, n = 108

CNC(C)C1CCC(N)C(OC2C(N)CC(N)C(OC3OCC(C)(O)C(NC)C3O)C2O)O1 (stereo not drawn) [Gentamicin, gentamicin, reference compound]
MIC ([1]; ATCC19636, read-out: BMD MIC, A. baumannii ATCC 19636 type strain, CAMHB): 16 µg/mL (≈ 33.5 µM)
MIC ([1]; ATCC19636, read-out: BMD MIC, A. baumannii ATCC 19636 type strain, MHB): 32 µg/mL (≈ 67 µM)
MIC ([1]; read-out: BMD MIC, A. baumannii Greece CI, XDR, PmxR, MHB): > 32 µg/mL
MIC ([2]; ATCC25922, read-out: BMD MIC, E. coli ATCC 25922 FDA control strain, CAMHB, mode of 6 replicates): ≤ 0.25 µg/mL
MIC ([2]; ATCC25922, read-out: BMD MIC, E. coli ATCC 25922 FDA control strain, MHB, mode of 6 independent biological replicates): 1 µg/mL (≈ 2.09 µM)
MIC ([2]; ATCC700926|MG1655, read-out: BMD MIC, E. coli ATCC 700926 K12 (MG1655), CAMHB, mode of 6 replicates): 0.5 µg/mL (≈ 1.05 µM)
MIC ([2]; ATCC700928, read-out: BMD MIC, E. coli ATCC 700928 CFT073 UPEC, CAMHB, mode of 6 replicates): 0.5 µg/mL (≈ 1.05 µM)
MIC ([2]; read-out: BMD MIC, E. coli CI 12-6-83 Hong Kong, mcr-1 pos, ESBL, CAMHB, mode of 6 replicates): 0.5 µg/mL (≈ 1.05 µM)
MIC ([3]; ATCC13883, read-out: BMD MIC, K. pneumoniae ATCC 13883 type strain (polymyxin/colistin heteroresistant), MHB): 0.5 µg/mL (≈ 1.05 µM)
MIC ([3]; ATCC700603, read-out: BMD MIC, K. pneumoniae ATCC 700603 (K6), MDR, OXA-2/SHV-18, CAMHB): 4 µg/mL (≈ 8.38 µM)
MIC ([3]; ATCC700603, read-out: BMD MIC, K. pneumoniae ATCC 700603 (K6), MDR, OXA-2/SHV-18, MHB): 4 µg/mL (≈ 8.38 µM)
MIC ([3]; BAA2146, read-out: BMD MIC, K. pneumoniae BAA-2146, MDR, ESBL, NDM-1 pos, MHB): > 32 µg/mL
MIC ([4]; ATCC27853, read-out: BMD MIC, P. aeruginosa ATCC 27853 control strain, CAMHB): 1 µg/mL (≈ 2.09 µM)
MIC ([4]; ATCC27853, read-out: BMD MIC, P. aeruginosa ATCC 27853 control strain, MHB): 1 µg/mL (≈ 2.09 µM)
MIC ([4]; read-out: BMD MIC, P. aeruginosa FADDI-070, MDR, PmxR, MHB/CAMHB): 32 µg/mL (≈ 67 µM)
MIC ([5]; Staphylococcus aureus, ATCC25923 / MSSA, read-out: BMD MIC): 4 µg/mL (≈ 8.38 µM)
MIC ([6]; Salmonella enterica, ATCC14028 / TYPHI, read-out: BMD MIC): 1 µg/mL (≈ 2.09 µM)
MIC90 ([7]; Acinetobacter baumannii): > 32 µg/mL
MIC90 ([7]; US isolates 2010–2012, A. baumannii MDR, n = 19): >32 µg/mL
MIC90 ([7]; US isolates 2010–2012, A. baumannii XDR, n = 31): >32 µg/mL
MIC50 [7, 8]: > 32 µg/mL
MIC90 [7, 8]: > 32 µg/mL

polymyxin B [PolymyxinB, reference compound]
BMD MIC ([1]; A. baumannii ATCC 19636 type strain, CAMHB): 0.06 µg/mL
BMD MIC ([1]; A. baumannii ATCC 19636 type strain, MHB): 0.03 µg/mL
BMD MIC ([1]; A. baumannii Greece CI, XDR, PmxR, MHB): 8 to 16 µg/mL
MIC against E. coli AID#172 MDR clinical isolate ([2]; BMD): 0.03 µg/mL
BMD MIC ([2]; E. coli ATCC 25922 FDA control strain, CAMHB, mode of 6 replicates): 0.125 µg/mL
BMD MIC ([2]; E. coli ATCC 25922 FDA control strain, MHB, mode of 6 independent biological replicates): 0.25 µg/mL
BMD MIC ([2]; E. coli ATCC 700926 K12 (MG1655), CAMHB, mode of 6 replicates): 0.015 µg/mL
BMD MIC ([2]; E. coli ATCC 700928 CFT073 UPEC, CAMHB, mode of 6 replicates): ≤0.25 µg/mL
BMD MIC ([2]; E. coli CI 12-6-83 Hong Kong, mcr-1 pos, ESBL, CAMHB, mode of 6 replicates): 2 µg/mL
BMD MIC ([3]; K. pneumoniae ATCC 13883 type strain (polymyxin/colistin heteroresistant), MHB): 0.5-8# μg mL-1
BMD MIC ([3]; K. pneumoniae ATCC 700603 (K6), MDR, OXA-2/SHV-18, CAMHB): 0.06 µg/mL
BMD MIC ([3]; K. pneumoniae ATCC 700603 (K6), MDR, OXA-2/SHV-18, MHB): 0.125 µg/mL
BMD MIC ([3]; K. pneumoniae BAA-2146, MDR, ESBL, NDM-1 pos, MHB): 0.125 µg/mL
BMD MIC ([3]; K. pneumoniae Greece CI 8_GR_13, XDR, KPC-2, PmxR, MHB): 32 µg/mL
BMD MIC ([4]; P. aeruginosa ATCC 27853 control strain, CAMHB): ≤0.25 µg/mL
BMD MIC ([4]; P. aeruginosa ATCC 27853 control strain, MHB): 0.25 µg/mL
BMD MIC ([4]; P. aeruginosa FADDI-070, MDR, PmxR, MHB/CAMHB): 32 µg/mL
BMD MIC ([5]; S. aureus ATCC 25923 MSSA, MHB, mode of 6 replicates): 128 µg/mL
BMD MIC ([6]; S. enterica Typhi ATCC 14028 control strain, CDC 6516-60, CAMHB, mode of 6 replicates): 0.03 µg/mL
Number of isolates with MIC 0.125 (MIC frequency distribution) [7]: 4
MIC50 [7, 9]: 0.03 µg/mL
MIC90 [7, 9]: 0.125 µg/mL
Number of isolates with MIC 0.03 (MIC frequency distribution) ([7]; A. baumannii, worldwide isolates 2011-2013, n = 108, count of isolates at MIC 0.03): 75
Number of isolates with MIC 0.06 (MIC frequency distribution) ([7]; A. baumannii, worldwide isolates 2011-2013, n = 108, count of isolates at MIC 0.06): 18
Number of isolates with MIC 0.25 (MIC frequency distribution) ([7]; A. baumannii, worldwide isolates 2011-2013, n = 108, count of isolates at MIC 0.25): 0
Number of isolates with MIC 0.5 (MIC frequency distribution) ([7]; A. baumannii, worldwide isolates 2011-2013, n = 108, count of isolates at MIC 0.5): 2
Number of isolates with MIC 1 (MIC frequency distribution) ([7]; A. baumannii, worldwide isolates 2011-2013, n = 108, count of isolates at MIC 1): 2
Number of isolates with MIC 2 (MIC frequency distribution) ([7]; A. baumannii, worldwide isolates 2011-2013, n = 108, count of isolates at MIC 2): 1
Number of isolates with MIC 4 (MIC frequency distribution) ([7]; A. baumannii, worldwide isolates 2011-2013, n = 108, count of isolates at MIC 4): 1
Number of isolates with MIC 8 (MIC frequency distribution) ([7]; A. baumannii, worldwide isolates 2011-2013, n = 108, count of isolates at MIC 8): 3
Number of isolates with MIC 16 (MIC frequency distribution) ([7]; A. baumannii, worldwide isolates 2011-2013, n = 108, count of isolates at MIC 16): 0
Number of isolates with MIC 32 (MIC frequency distribution) ([7]; A. baumannii, worldwide isolates 2011-2013, n = 108, count of isolates at MIC 32): 0
Number of isolates with MIC 64 (MIC frequency distribution) ([7]; A. baumannii, worldwide isolates 2011-2013, n = 108, count of isolates at MIC 64): 0
Number of isolates with MIC 128 (MIC frequency distribution) ([7]; A. baumannii, worldwide isolates 2011-2013, n = 108, count of isolates at MIC 128): 0
Number of isolates with MIC >16 (MIC frequency distribution) ([7]; A. baumannii, worldwide isolates 2011-2013, n = 108, count of isolates at MIC >16): 0
Number of isolates with MIC >32 (MIC frequency distribution) ([7]; A. baumannii, worldwide isolates 2011-2013, n = 108, count of isolates at MIC >32): 0
Number of isolates with MIC >128 (MIC frequency distribution) ([7]; A. baumannii, worldwide isolates 2011-2013, n = 108, count of isolates at MIC >128): 0
Number of isolates with MIC ≤0.015 (MIC frequency distribution) ([7]; A. baumannii, worldwide isolates 2011-2013, n = 108, count of isolates at MIC ≤0.015): 2

Source: article PMC7311426, “An amphipathic peptide with antibiotic activity against multidrug-resistant Gram-negative bacteria” (Nature Communications, 2020)
